In patent publication US20190284136A1, “INDOLINE DERIVATIVES” (ViiV HEALTHCARE UK LIMITED, priority 2016, published 2019) one finds IC50 data, which are given here for 25 compounds.

Molecules are shown by their SMILES.

Broadly, the IC50 is the concentration at which inhibition is half-maximal.

For the assay, the system named is HIV. The assay can be described thus: Table 1 IC50 of the examples (assay method not given; patent concerns inhibiting HIV replication). Type of assay: cell-based. To be noted: Human immunodeficiency virus 1.
Compound `Cc1ccc(C(=O)N2CCc3c2cc(C)c([C@H](OC(C)(C)C)C(=O)O)c3-c2cc(F)c3c(c2C)CCCO3)cc1Cl` (atropisomer, axis not shown) [Example 115, (S)-2-(tert-Butoxy)-2-((R)-1-(3-chloro-4-methylbenzoyl)-4-(8-fluoro-5-methylchroman-6-yl)-6-methylindolin-5-yl)acetic acid] had a half-inhibitory concentration (IC50) of 5 nM. `Cc1ccc(C(=O)N2CCc3c2cc(C)c([C@H](OC(C)(C)C)C(=O)O)c3-c2cc(F)c3c(c2C)CCCO3)cn1` (atropisomer, axis not shown) [Example 116, (S)-2-(tert-Butoxy)-2-((R)-4-(8-fluoro-5-methylchroman-6-yl)-6-methyl-1-(6-methylnicotinoyl)indolin-5-yl)acetic acid] yielded an IC50 of 11 nM. Regarding `COc1cc(Cl)cc(C(=O)N2CCc3c2cc(C)c([C@H](OC(C)(C)C)C(=O)O)c3-c2cc(F)c3c(c2C)CCCO3)c1` (atropisomer, axis not shown) [Example 117], the IC50 turned out to be 16 nM. On to `Cc1cccc(C(=O)N2CCc3c2cc(C)c([C@H](OC(C)(C)C)C(=O)O)c3-c2cc(F)c3c(c2C)CCCO3)c1F` (atropisomer, axis not shown) [Example 118, (S)-2-(tert-Butoxy)-2-((R)-1-(2-fluoro-3-methylbenzoyl)-4-(8-fluoro-5-methylchroman-6-yl)-6-methylindolin-5-yl)acetic acid], for which the IC50 amounted to 5 nM. `Cc1cc2c(c(-c3cc(F)c4c(c3C)CCCO4)c1[C@H](OC(C)(C)C)C(=O)O)CCN2C(=O)c1ccc(F)c(Cl)c1` (atropisomer, axis not shown) [Example 119, (S)-2-(tert-Butoxy)-2-((R)-1-(3-chloro-4-fluorobenzoyl)-4-(8-fluoro-5-methylchroman-6-yl)-6-methylindolin-5-yl)acetic acid]: it took 3 nM to reach half-maximal inhibition (IC50).

`Cc1cc2c(c(-c3cc(F)c4c(c3C)CCCO4)c1[C@H](OC(C)(C)C)C(=O)O)CCN2C(=O)C(C)(C)C` (atropisomer, axis not shown) [Example 120, (S)-2-(tert-Butoxy)-2-((R)-4-(8-fluoro-5-methylchroman-6-yl)-6-methyl-1-pivaloylindolin-5-yl)acetic acid] had a 50% inhibitory concentration (IC50) of 91 nM.

Turning to `Cc1cccc(C(=O)N2CCc3c2cc(C)c([C@H](OC(C)(C)C)C(=O)O)c3-c2cc(F)c3c(c2C)CCCO3)c1C` (atropisomer, axis not shown) [Example 121, (S)-2-(tert-Butoxy)-2-((R)-1-(2,3-dimethylbenzoyl)-4-(8-fluoro-5-methylchroman-6-yl)-6-methylindolin-5-yl)acetic acid], the 50% inhibitory concentration (IC50) was 7 nM. Regarding `Cc1cc2c(c(-c3cc(F)c4c(c3C)CCCO4)c1[C@H](OC(C)(C)C)C(=O)O)CCN2C(=O)c1ccc2c(c1)CCC2` (atropisomer, axis not shown) [Example 122, (S)-2-(tert-Butoxy)-2-((R)-1-(2,3-dihydro-1H-indene-5-carbonyl)-4-(8-fluoro-5-methylchroman-6-yl)-6-methylindolin-5-yl)acetic acid], half-maximal inhibition (IC50) required 17 nM. This IC50 lies about 2.4-fold higher than the previous one.

`COc1cc(C(=O)N2CCc3c2cc(C)c([C@H](OC(C)(C)C)C(=O)O)c3-c2cc(F)c3c(c2C)CCCO3)ccc1Cl` (atropisomer, axis not shown) [Example 123, (S)-2-(tert-Butoxy)-2-((R)-1-(4-chloro-3-methoxybenzoyl)-4-(8-fluoro-5-methylchroman-6-yl)-6-methylindolin-5-yl)acetic acid] registered an IC50 of 3 nM. In turn, `COc1ccc(C(=O)N2CCc3c2cc(C)c([C@H](OC(C)(C)C)C(=O)O)c3-c2cc(F)c3c(c2C)CCCO3)cc1Cl` (atropisomer, axis not shown) [Example 124, (S)-2-(tert-Butoxy)-2-((R)-1-(3-chloro-4-methoxybenzoyl)-4-(8-fluoro-5-methylchroman-6-yl)-6-methylindolin-5-yl)acetic acid] gave an IC50 of 3 nM. `Cc1cc2c(c(-c3cc(F)c4c(c3C)CCCO4)c1[C@H](OC(C)(C)C)C(=O)O)CCN2C(=O)c1ccccc1C(F)(F)F` (atropisomer, axis not shown) [Example 125, (S)-2-(tert-Butoxy)-2-((R)-4-(8-fluoro-5-methylchroman-6-yl)-6-methyl-1-(2-(trifluoromethyl)benzoyl)indolin-5-yl)acetic acid] returned a half-maximal inhibitory concentration (IC50) of 5 nM. Against the preceding compound, the IC50 is about 1.7-fold higher. `COc1ccc(C(=O)N2CCc3c2cc(C)c([C@H](OC(C)(C)C)C(=O)O)c3-c2cc(F)c3c(c2C)CCCO3)c(OC)c1OC` (atropisomer, axis not shown) [Example 126, (S)-2-(tert-Butoxy)-2-((R)-4-(8-fluoro-5-methylchroman-6-yl)-6-methyl-1-(2,3,4-trimethoxybenzoyl)indolin-5-yl)acetic acid] gave an IC50 of 5 nM. The compound `Cc1cc2c(c(-c3cc(F)c4c(c3C)CCCO4)c1[C@H](OC(C)(C)C)C(=O)O)CCN2C(=O)c1ccc2c(c1)CCO2` (atropisomer, axis not shown) [Example 127, (S)-2-(tert-Butoxy)-2-((R)-1-(2,3-dihydrobenzofuran-5-carbonyl)-4-(8-fluoro-5-methylchroman-6-yl)-6-methylindolin-5-yl)acetic acid] yielded an IC50 of 2 nM. Compared with the last compound, the IC50 is about 2.5-fold lower. The result for `COc1ccc(C(=O)N2CCc3c2cc(C)c([C@H](OC(C)(C)C)C(=O)O)c3-c2cc(F)c3c(c2C)CCCO3)c(Cl)c1` (atropisomer, axis not shown) [Example 128, (S)-2-(tert-Butoxy)-2-((R)-1-(2-chloro-4-methoxybenzoyl)-4-(8-fluoro-5-methylchroman-6-yl)-6-methylindolin-5-yl)acetic acid] reads 5 nM; that for `Cc1cc2c(c(-c3cc(F)c4c(c3C)CCCO4)c1[C@H](OC(C)(C)C)C(=O)O)CCN2C(=O)c1cc2ccccc2[nH]1` (atropisomer, axis not shown) [Example 129, (S)-2-(tert-Butoxy)-2-((R)-4-(8-fluoro-5-methylchroman-6-yl)-1-(1H-indole-2-carbonyl)-6-methylindolin-5-yl)acetic acid], 22 nM.

Turning to `Cc1cc2c(c(-c3cc(F)c4c(c3C)CCCO4)c1[C@H](OC(C)(C)C)C(=O)O)CCN2C(=O)C1=CCCCC1` (atropisomer, axis not shown) [Example 130, (S)-2-(tert-Butoxy)-2-((R)-1-(cyclohex-1-ene-1-carbonyl)-4-(8-fluoro-5-methylchroman-6-yl)-6-methylindolin-5-yl)acetic acid], the concentration for half-maximal inhibition (IC50) amounted to 4 nM. As to `Cc1cc2c(c(-c3cc(F)c4c(c3C)CCCO4)c1[C@H](OC(C)(C)C)C(=O)O)CCN2C(=O)c1ccco1` (atropisomer, axis not shown) [Example 131, (S)-2-(tert-Butoxy)-2-((R)-4-(8-fluoro-5-methylchroman-6-yl)-1-(furan-2-carbonyl)-6-methylindolin-5-yl)acetic acid], the half-inhibitory concentration (IC50) amounted to 110 nM. The result for `Cc1cc2c(c(-c3cc(F)c4c(c3C)CCCO4)c1[C@H](OC(C)(C)C)C(=O)O)CCN2C(=O)C1CC1` (atropisomer, axis not shown) [Example 132, (S)-2-(tert-Butoxy)-2-((R)-1-(cyclopropanecarbonyl)-4-(8-fluoro-5-methylchroman-6-yl)-6-methylindolin-5-yl)acetic acid] reads 414 nM; that for `Cc1cc2c(c(-c3cc(F)c4c(c3C)CCCO4)c1[C@H](OC(C)(C)C)C(=O)O)CCN2C(=O)c1cc(C(F)(F)F)cc(C(F)(F)F)c1` (atropisomer, axis not shown) [Example 133, (S)-2-((R)-1-(3,5-Bis(trifluoromethyl)benzoyl)-4-(8-fluoro-5-methylchroman-6-yl)-6-methylindolin-5-yl)-2-(tert-butoxy)acetic acid], 67 nM; that for `Cc1cccc(C(=O)N2CCc3c2cc(C)c([C@H](OC(C)(C)C)C(=O)O)c3-c2cc(F)c3c(c2C)CCCO3)c1Cl` (atropisomer, axis not shown) [Example 135, (S)-2-(tert-Butoxy)-2-((R)-1-(2-chloro-3-methylbenzoyl)-4-(8-fluoro-5-methylchroman-6-yl)-6-methylindolin-5-yl)acetic acid], 4 nM. Take `Cc1cc2c(c(-c3cc(F)c4c(c3C)CCCO4)c1[C@H](OC(C)(C)C)C(=O)O)CCN2C(=O)c1ccc(C(F)(F)F)cc1F` (atropisomer, axis not shown) [Example 136, (S)-2-(tert-Butoxy)-2-((R)-1-(2-fluoro-4-(trifluoromethyl)benzoyl)-4-(8-fluoro-5-methylchroman-6-yl)-6-methylindolin-5-yl)acetic acid]: the IC50 came out at 41 nM. Against the preceding compound, the IC50 is about 10-fold higher. On to `Cc1ccc(C(=O)N2CCc3c2cc(C)c([C@H](OC(C)(C)C)C(=O)O)c3-c2cc(F)c3c(c2C)CCCO3)c(Cl)c1` (atropisomer, axis not shown) [Example 137, (S)-2-(tert-Butoxy)-2-((R)-1-(2-chloro-4-methylbenzoyl)-4-(8-fluoro-5-methylchroman-6-yl)-6-methylindolin-5-yl)acetic acid], for which the IC50 is 4 nM. The result for `Cc1cc2c(c(-c3cc(F)c4c(c3C)CCCO4)c1[C@H](OC(C)(C)C)C(=O)O)CCN2C(=O)c1ccc(Cl)cc1F` (atropisomer, axis not shown) [Example 138, (S)-2-(tert-Butoxy)-2-((R)-1-(4-chloro-2-fluorobenzoyl)-4-(8-fluoro-5-methylchroman-6-yl)-6-methylindolin-5-yl)acetic acid] reads 5 nM; that for `Cc1ccc(C(=O)N2CCc3c2cc(C)c([C@H](OC(C)(C)C)C(=O)O)c3-c2cc(F)c3c(c2C)CCCO3)c(F)c1` (atropisomer, axis not shown) [Example 139, (S)-2-(tert-Butoxy)-2-((R)-1-(2-fluoro-4-methylbenzoyl)-4-(8-fluoro-5-methylchroman-6-yl)-6-methylindolin-5-yl)acetic acid], 6 nM. For `Cc1cc2c(c(-c3cc(F)c4c(c3C)CCCO4)c1[C@H](OC(C)(C)C)C(=O)O)CCN2C(=O)c1ccc(C(F)(F)F)c(F)c1` (atropisomer, axis not shown) [Example 140, (S)-2-(tert-Butoxy)-2-((R)-1-(3-fluoro-4-(trifluoromethyl)benzoyl)-4-(8-fluoro-5-methylchroman-6-yl)-6-methylindolin-5-yl)acetic acid], the IC50 is 14 nM.
